Measured values published in patent EP3898610B1, “NOVEL AZA-HEXAPHENE ANTIBIOTIC COMPOUNDS” (Fondazione Istituto Insubrico di Ricerca per la Vita, priority 2018, dated 2020).
Converted amounts (≈) assume the structure as drawn. Read-outs that look alike come from different tables or passages of the source.

Assays:
Solubility = type: physicochemical
Method: Solubility of compound 1 (103/33 F-710) was poor in most low to medium- polarity organic solvents, as well as in water from acidic to neutral pH; it was more soluble at basic pH and stable up to pH 8-9, while in alcohols it ranged between 5-10 mg/ml. […] Some crystallizations trials were performed on compound 1 (103/33 F-710) in order to obtain suitable crystals for the X-ray structural characterization.

L560 E. faecalis VanA = assay: MIC, broth microdilution (CLSI); type: cell-based; conditions: Enterococcus faecalis; L560 E. faecalis VanA; cation-adjusted Mueller Hinton Broth, 35°C, 18-24 hours; read-out: MIC
Method: (§1) Antibacterial activity. […] Each bacterial strain was inoculated with 2-5×10^5 CFU/ml, Candida albicans with 10^4 CFU/ml. Cultures were incubated at 35°C in air. After 18-24 hours visual readings were performed and MICs (Minimal Inhibitory Concentrations) determined. The effect of 30% bovine serum was determined under the same experimental conditions. The strains used were clinical isolates or strains from American Type Culture Collection (ATCC).

L100 S. aureus ATCC6538P = assay: MIC, broth microdilution (CLSI); type: cell-based; conditions: Staphylococcus aureus; L100 S. aureus ATCC6538P; cation-adjusted Mueller Hinton Broth, 35°C, 18-24 hours; read-out: MIC
Method: as §1

L819 S. aureus Smith = assay: MIC, broth microdilution (CLSI); type: cell-based; conditions: Staphylococcus aureus; L819 S. aureus Smith; cation-adjusted Mueller Hinton Broth, 35°C, 18-24 hours; read-out: MIC
Method: as §1

L1577 S. epidermidis = assay: MIC, broth microdilution (CLSI); type: cell-based; conditions: Staphylococcus epidermidis; L1577 S. epidermidis; cation-adjusted Mueller Hinton Broth, 35°C, 18-24 hours; read-out: MIC
Method: as §1

L569 E. faecium VanA = assay: MIC, broth microdilution (CLSI); type: cell-based; conditions: Enterococcus faecium; L569 E. faecium VanA; cation-adjusted Mueller Hinton Broth, 35°C, 18-24 hours; read-out: MIC
Method: as §1

L1400 S. aureus HA-MRSA = assay: MIC, broth microdilution (CLSI); type: cell-based; conditions: Staphylococcus aureus; L1400 S. aureus HA-MRSA; cation-adjusted Mueller Hinton Broth, 35°C, 18-24 hours; read-out: MIC
Method: as §1

L559 E. faecalis = assay: MIC, broth microdilution (CLSI); type: cell-based; conditions: Enterococcus faecalis; L559 E. faecalis; cation-adjusted Mueller Hinton Broth, 35°C, 18-24 hours; read-out: MIC
Method: as §1

[1] = test system: VA80201 S. aureus CA-MRSA; assay: MIC, broth microdilution (CLSI); type: cell-based; conditions: Staphylococcus aureus; VA80201 S. aureus CA-MRSA; cation-adjusted Mueller Hinton Broth, 35°C, 18-24 hours; read-out: MIC
Method: as §1

L1730 S. haemolyticus = assay: MIC, broth microdilution (CLSI); type: cell-based; conditions: Staphylococcus haemolyticus; L1730 S. haemolyticus; cation-adjusted Mueller Hinton Broth, 35°C, 18-24 hours; read-out: MIC
Method: as §1

L47 E. coli = assay: MIC, broth microdilution (CLSI); type: cell-based; conditions: Escherichia coli; L47 E. coli; cation-adjusted Mueller Hinton Broth, 35°C, 18-24 hours; read-out: MIC
Method: as §1

L49 S. pyogenes C203 = assay: MIC, broth microdilution (CLSI); type: cell-based; conditions: Streptococcus pyogenes; L49 S. pyogenes C203; Todd Hewitt medium, 35°C, 18-24 hours; read-out: MIC
Method: as §1

L568 E. faecium = assay: MIC, broth microdilution (CLSI); type: cell-based; conditions: Enterococcus faecium; L568 E. faecium; cation-adjusted Mueller Hinton Broth, 35°C, 18-24 hours; read-out: MIC
Method: as §1

L44 S. pneumoniae = assay: MIC, broth microdilution (CLSI); type: cell-based; conditions: Streptococcus pneumoniae; L44 S. pneumoniae; Todd Hewitt medium, 35°C, 18-24 hours; read-out: MIC
Method: as §1

[2] = test system: L1729 S. haemolyticus MDR; assay: MIC, broth microdilution (CLSI); type: cell-based; conditions: Staphylococcus haemolyticus; L1729 S. haemolyticus MDR; cation-adjusted Mueller Hinton Broth, 35°C, 18-24 hours; read-out: MIC
Method: as §1

[3] = test system: VA8101 S. agalactiae (Group B); assay: MIC, broth microdilution (CLSI); type: cell-based; conditions: Streptococcus agalactiae; VA8101 S. agalactiae (Group B); Todd Hewitt medium, 35°C, 18-24 hours; read-out: MIC
Method: as §1

[4] = test system: L4061 S. aureus MRSA - GISA; assay: MIC, broth microdilution (CLSI); type: cell-based; conditions: Staphylococcus aureus; L4061 S. aureus MRSA - GISA; cation-adjusted Mueller Hinton Broth, 35°C, 18-24 hours; read-out: MIC
Method: as §1

human erythrocytes = assay: Hemolytic activity; type: cell-based

COc1c(OC)c2c(=O)c3cc(C)n(C(CC4CN(C)C(=N)N4)C(=O)O)c(=O)c3c(=O)c2c2cc3c(=O)c4cc(O)cc(O)c4c(=O)c3c(OC)c12 (stereo not shown) [compound 1, 2-(10,12-Dihydroxy-6,7,8-trimethoxy-3-methyl-1,5,9,14,16-pentaoxo-5,9,14,16-tetrahydro-1H-2-aza-hexaphen-2-yl)-3-(2-imino-1-methyl-imidazolidin-4-yl)-propionic acid]
Solubility (Solubility; acetone): scarcely soluble | Solubility (Solubility; at basic pH): more soluble | Solubility (Solubility; dimethylformamide (DMF)): soluble | Solubility (Solubility; methanol (MeOH)): scarcely soluble | Solubility (Solubility; most low to medium- polarity organic solvents): poor | Solubility (Solubility; organic solvent or mixture, dimethylsulfoxide (DMSO), read-out: Solubility): > 50000 µg/mL | Solubility (Solubility; organic solvent or mixture, in alcohols, read-out: Solubility): 5000 to 10000 µg/mL (≈ 7040 to 14100 µM) | Solubility (Solubility; water from acidic to neutral pH): poor | MIC (L560 E. faecalis VanA): 0.03 µg/mL (≈ 0.0422 µM) | MIC (L100 S. aureus ATCC6538P): 0.03 µg/mL (≈ 0.0422 µM) | MIC (L819 S. aureus Smith): 0.06 µg/mL (≈ 0.0844 µM) | MIC (L1577 S. epidermidis): 0.06 µg/mL (≈ 0.0844 µM) | MIC (L569 E. faecium VanA): 2 µg/mL (≈ 2.81 µM) | MIC (L1400 S. aureus HA-MRSA): 0.03 µg/mL (≈ 0.0422 µM) | MIC (L559 E. faecalis): 0.03 µg/mL (≈ 0.0422 µM) | MIC [1]: 0.015 µg/mL (≈ 0.0211 µM) | MIC (L1730 S. haemolyticus): 0.03 µg/mL (≈ 0.0422 µM) | MIC (L47 E. coli): > 256 µg/mL | MIC (L49 S. pyogenes C203): 16 µg/mL (≈ 22.5 µM) | MIC (L568 E. faecium): 2 µg/mL (≈ 2.81 µM) | MIC (L44 S. pneumoniae): 16 µg/mL (≈ 22.5 µM) | MIC [2]: 0.016 µg/mL (≈ 0.0225 µM) | MIC [3]: 8 µg/mL (≈ 11.3 µM) | MIC [4]: 0.06 µg/mL (≈ 0.0844 µM) | hemolytic activity (human erythrocytes): no hemolytic activity
